From PubChem BioAssay (NCI)
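Cultured in 96-well plates, cells were exposed to test compound for 48 hours across five concentrations. GI50 is the concentration that inhibits growth by half. The concentration for full growth arrest is given as TGI.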

Key:
Experiment in all cases: DTP human tumour cell line panel, 48 h
[1] = tested on: 786-0 renal
[2] = tested on: A549 NSCLC
[3] = tested on: CAKI-1 renal
[4] = tested on: HL-60(TB) leukemia
[5] = tested on: HOP-92 NSCLC
[6] = tested on: M14 melanoma
[7] = tested on: NCI-H460 lung
[8] = tested on: SK-MEL-28 melanoma
[9] = tested on: SW-620 colon

With `COc1ccc(C2SC(C)C(=O)N2NC(=O)C(O)c2ccccc2)cc1OC` (stereo unspecified) the GI50 [1] was > 100 µM, the TGI [1] was > 100 µM and the GI50 [2] was > 100 µM. For the same molecule, the TGI [2] was > 100 µM, the GI50 [3] was > 100 µM and the TGI [3] was > 100 µM. The GI50 [4] was > 100 µM, the TGI [4] was > 100 µM and the GI50 [5] was > 100 µM. For the same molecule, the TGI [5] was > 100 µM, the GI50 [6] was > 100 µM and the TGI [6] was > 100 µM. The GI50 [7] was > 100 µM, the TGI [7] was > 100 µM and the GI50 [8] was > 100 µM. The TGI [8] was > 100 µM, the GI50 [9] was > 100 µM and the TGI [9] was > 100 µM.
With `COc1ccc(OC)c(-c2c(C#N)c(N)nc(N3CCOCC3)c2C#N)c1` the GI50 [1] was > 100 µM, the TGI [1] was > 100 µM and the GI50 [2] was > 100 µM. For the same molecule, the TGI [2] was > 100 µM, the GI50 [3] was 43.4 µM and the TGI [3] was 97 µM. For the same molecule, the GI50 [4] was > 100 µM, the TGI [4] was > 100 µM and the GI50 [5] was 82.5 µM. For the same molecule, the TGI [5] was > 100 µM, the GI50 [6] was > 100 µM and the TGI [6] was > 100 µM. For the same molecule, the GI50 [7] was > 100 µM, the TGI [7] was > 100 µM and the GI50 [8] was 82.8 µM. The TGI [8] was > 100 µM, the GI50 [9] was > 100 µM and the TGI [9] was > 100 µM.
`O=c1nc2oc3ccc4ccccc4c3cc-2s1` was tested, and the GI50 [1] was 3.25 µM, the TGI [1] was > 100 µM and the GI50 [2] was > 92.7 µM. For the same molecule, the TGI [2] was > 100 µM, the GI50 [3] was 1.16 µM and the TGI [3] was > 100 µM. The GI50 [4] was 1.41 µM, the TGI [4] was > 100 µM and the GI50 [5] was 1.62 µM. The TGI [5] was > 57.8 µM, the GI50 [6] was 1.09 µM and the TGI [6] was > 100 µM. For the same molecule, the GI50 [7] was 4.93 µM, the TGI [7] was > 100 µM and the GI50 [8] was 14.6 µM. For the same molecule, the TGI [8] was > 100 µM, the GI50 [9] was 1.05 µM and the TGI [9] was > 100 µM.
`C=C1C(=O)OC2/C=C(/C)C(OC(C)=O)CC(O)/C(C)=C\C(OC(=O)/C(C)=C\C)C12` (stereo unspecified) was tested, and the TGI [1] was 35.4 µM, the TGI [2] was > 100 µM and the TGI [3] was 86.4 µM. For the same molecule, the TGI [4] was 60.7 µM, the TGI [5] was > 100 µM and the TGI [6] was > 100 µM. For the same molecule, the TGI [7] was > 100 µM, the TGI [8] was > 100 µM and the TGI [9] was 67.6 µM.
For `C[Si](C)(C)c1ccc(-c2sc(-c3ccc([Si](C)(C)C)s3)c3c2C[Si]2(C3)Cc3c(-c4ccc([Si](C)(C)C)s4)sc(-c4ccc([Si](C)(C)C)s4)c3C2)s1`, the TGI [1] was > 100 µM, the TGI [2] was > 100 µM and the TGI [3] was > 100 µM. The TGI [4] was > 100 µM, the TGI [5] was > 100 µM and the TGI [6] was > 100 µM. The TGI [7] was > 100 µM, the TGI [8] was > 100 µM and the TGI [9] was > 100 µM.
For `CS[C@]12C(=O)C[C@@]3(C)[C@@H](CC[C@]3(O)C(=O)CO)[C@@H]1CCC1=CC(=O)CC[C@@]12C`, the TGI [1] was > 100 µM, the TGI [2] was > 100 µM and the TGI [3] was > 100 µM. For the same molecule, the TGI [4] was > 100 µM, the TGI [5] was > 100 µM and the TGI [6] was > 100 µM. For the same molecule, the TGI [7] was > 100 µM, the TGI [8] was > 100 µM and the TGI [9] was > 100 µM.
With `C/C=C(\C)C(=O)O[C@H]1C=CC(=O)O[C@@H]1CC[C@H](O)[C@H](C)O` the GI50 [1] was 46.5 µM, the TGI [1] was > 100 µM and the GI50 [2] was > 75.1 µM. The TGI [2] was > 100 µM, the GI50 [3] was 27.3 µM and the TGI [3] was 68.4 µM. It also gave a GI50 [4] of 5.71 µM, a TGI [4] of 36.3 µM and a GI50 [5] of 35 µM. The TGI [5] was > 87.5 µM, the GI50 [6] was 34 µM and the TGI [6] was > 100 µM. The GI50 [7] was > 77.3 µM, the TGI [7] was > 100 µM and the GI50 [8] was 27.4 µM. It also gave a TGI [8] of 74.7 µM, a GI50 [9] of 24 µM and a TGI [9] of 57.6 µM.
In the case of `COc1cc([C@H]2OC[C@H]3[C@@H]2CO[C@@H]3c2cc(OC)c3c(c2)OCO3)cc(OC)c1OC`, the TGI [1] is reported as > 100 µM, the TGI [2] is reported as > 100 µM and the TGI [3] is reported as > 100 µM. For the same molecule, the TGI [4] was > 100 µM, the TGI [5] was > 100 µM and the TGI [6] was > 100 µM. For the same molecule, the TGI [7] was > 100 µM, the TGI [8] was > 100 µM and the TGI [9] was > 100 µM.
In the case of `Nc1nc(Nc2ccc(C3CCC(N4CCOCC4)CC3)cc2)nn1-c1ccccn1` (stereo unspecified), the GI50 [1] is reported as 2.22 µM, the TGI [1] is reported as 11.4 µM and the GI50 [2] is reported as 4.08 µM. For the same molecule, the TGI [2] was > 100 µM, the GI50 [3] was 2.44 µM and the TGI [3] was > 52.2 µM. It also gave a GI50 [4] of 2.55 µM, a TGI [4] of 9.96 µM and a GI50 [5] of 1.59 µM. For the same molecule, the TGI [5] was > 27.5 µM, the GI50 [6] was 4.36 µM and the TGI [6] was > 36.8 µM. For the same molecule, the GI50 [7] was 4.59 µM, the TGI [7] was > 69.2 µM and the GI50 [8] was 4.34 µM. The TGI [8] was 16.4 µM, the GI50 [9] was 3.4 µM and the TGI [9] was > 100 µM.
For `O=C(/C=C/c1ccc([N+](=O)[O-])cc1)c1ccc2c3c(cccc13)CC2`, the GI50 [1] was 10.2 µM, the TGI [1] was > 88.9 µM and the GI50 [2] was 10.3 µM. For the same molecule, the TGI [2] was > 100 µM, the GI50 [3] was 9.69 µM and the TGI [3] was > 100 µM. For the same molecule, the GI50 [4] was 4.51 µM, the TGI [4] was 29 µM and the GI50 [5] was 2.43 µM. The TGI [5] was 15.4 µM, the GI50 [6] was > 64.6 µM and the TGI [6] was > 100 µM. The GI50 [7] was 4.23 µM, the TGI [7] was > 64.8 µM and the GI50 [8] was 18.2 µM. The TGI [8] was 58.9 µM, the GI50 [9] was 2.34 µM and the TGI [9] was 6.62 µM.
`Cn1cc(C2=C(c3cccc(OCC(O)CO)c3)C(=O)NC2=O)c2ccccc21` (stereo unspecified) was tested, and the GI50 [1] was > 25 µM, the TGI [1] was > 25 µM and the GI50 [2] was > 25 µM. The TGI [2] was > 25 µM, the GI50 [3] was > 25 µM and the TGI [3] was > 25 µM. For the same molecule, the GI50 [4] was > 25 µM, the TGI [4] was > 25 µM and the GI50 [5] was > 25 µM. The TGI [5] was > 25 µM, the GI50 [6] was > 25 µM and the TGI [6] was > 25 µM. For the same molecule, the GI50 [7] was > 25 µM, the TGI [7] was > 25 µM and the GI50 [8] was > 25 µM. For the same molecule, the TGI [8] was > 25 µM, the GI50 [9] was > 25 µM and the TGI [9] was > 25 µM.
`O=C(Nc1ccc(Cl)cc1)Nc1ccc(Nc2nncc3ccccc23)cc1` was tested, and the GI50 [1] was 3.09 µM, the TGI [1] was 25.2 µM and the GI50 [2] was 3.03 µM. The TGI [2] was 19.3 µM, the GI50 [3] was 1.97 µM and the TGI [3] was 12.5 µM. It also gave a GI50 [4] of 2.42 µM, a TGI [4] of 7 µM and a GI50 [5] of 2.55 µM. The TGI [5] was 7.26 µM, the GI50 [6] was 1.52 µM and the TGI [6] was 11.5 µM. It also gave a GI50 [7] of 2.91 µM, a TGI [7] of 11.9 µM and a GI50 [8] of 3.04 µM. It also gave a TGI [8] of 12.8 µM, a GI50 [9] of 3.16 µM and a TGI [9] of 18.6 µM.
Work on `CC[C@H](CO)Nc1nc(NCc2ccccc2)n2ncc(C(C)C)c2n1` yielded a GI50 [1] of 1.98 µM, a TGI [1] of 10.7 µM and a GI50 [2] of 1.58 µM. The TGI [2] was 41.4 µM, the GI50 [3] was 1.02 µM and the TGI [3] was 8.35 µM. It also gave a GI50 [4] of 0.409 µM, a TGI [4] of 2.68 µM and a GI50 [5] of 1.67 µM. For the same molecule, the TGI [5] was 7.1 µM, the GI50 [6] was 2 µM and the TGI [6] was 7.93 µM. The GI50 [7] was 1.05 µM, the TGI [7] was 10.9 µM and the GI50 [8] was 1.16 µM. The TGI [8] was 3.82 µM, the GI50 [9] was 1.38 µM and the TGI [9] was 5.56 µM.
With `C[CH2][Sn]([CH2]C)([O]C(=O)C(OC(C)=O)c1ccccc1)[O]C(=O)C(OC(C)=O)c1ccccc1` (stereo unspecified) the GI50 [1] was 19.9 µM, the TGI [1] was 34.8 µM and the GI50 [2] was > 100 µM. The TGI [2] was > 100 µM, the GI50 [3] was 72 µM and the TGI [3] was > 100 µM. It also gave a GI50 [4] of 10 µM, a TGI [4] of 29.8 µM and a GI50 [5] of 18.6 µM. The TGI [5] was 34.9 µM, the GI50 [6] was 44.5 µM and the TGI [6] was > 100 µM. For the same molecule, the GI50 [7] was > 100 µM, the TGI [7] was > 100 µM and the GI50 [8] was 18.3 µM. For the same molecule, the TGI [8] was 40.9 µM, the GI50 [9] was 16.3 µM and the TGI [9] was 36.8 µM.
